Measured values as given in patent US10299714B2, “Blood collection devices containing blood stabilization agent including variegin or analog thereof and/or a polysulfated disaccharide” (Becton, Dickinson and Company, priority 2010, dated 2019).

Tests used:
[1] = tested on: platelets; assay: Whole blood impedance aggregometry (Multiplate): platelet aggregation after room temperature storage of drawn blood; format: cell-based, human; conditions: for Time after blood draw where aggregation was still measurable above baseline: Table 5, collagen and/or ADP
Source text: The blood was allowed to stand at room temperature, in undisturbed aliquots, until tested at the times indicated. Samples were inverted several times immediately prior to testing, to re-suspend blood cells that naturally settle over time.
Measurements: Testing of platelet function (which in this experiment, was aggregation activity) was done using the Multiplate instrument (Verum Diagnostics, Munich, Germany), which uses whole blood as the sample and an increase in impedance as the measurement of platelet aggregation. The instrument was used per manufacturer's instructions. Briefly, 300 microliters of isotonic saline was warmed in each reaction cuvette, and to this was added 300 microliters of the whole blood sample. In reactions where aspirin or other platelet antagonists (inhibitors) were added in vitro, 20 microliters (μL) of a stock solution of aspirin was spiked into the samples. The aggregation reaction was initiated by addition of a platelet agonist, in this case collagen, at 3.2 μg/ml and volume (20 μl) per manufacturer's instructions. Upon addition of the collagen, the impedance measurements began automatically, and were continued for 6 minutes, representing the full course along the x-axis in the graphs shown in FIG. 2. The graphs show platelet aggregation, as reported by impedance, as an arbitrary unitless measurement on the y-axis, over the 6-minute run time on the x-axis. Traces shown are raw platelet aggregation data delivered from the instrument. […] Representative data are shown for blood that dwells at room temperature after the initial draw for 1 hr, 24 hr, 48 hr, and 72 hr. Data are shown for the blood itself, as well for blood pre-treated with aspirin to inhibit platelet function immediately prior to testing.
The experiments were performed as described in Example 1. In this case, the data are plotted as a function of time that the blood sample dwells outside of the body (x-axis) versus platelet function as shown as the area under the curve (AUC) as one representation of the platelet aggregation signal. AUC is the integrated signal from the raw data traces shown in Example 1, and also is reported as a unitless measurement. The effective background level of the instrument is drawn as a dashed line across the bottom of the graph. Any AUC measurement of aggregation at or below this level was considered so weak as to be unreportable, essentially representing a “null” data level.
(§1) Relative stability of platelets was examined with respect to a range of concentrations of variegin (SEQ ID NO:1). Experiments were performed as described above, using either collagen or adenosine diphosphate (ADP) as agonists, all per manufacturer's recommended protocols. Table 2 lists a qualitative assessment of stability, namely how long after initially drawing the blood was platelet aggregation measureable above the effective instrument baseline, the time to first visual observation of clotted, insoluble material in the whole blood sample, and an assessment of the severity or extent of the presence of this insoluble material was also recorded.
These peptides were used as the blood stabilization agent, and were spiked into blood immediately after collection into an empty, evacuated blood collection tube, achieving a final concentration of 150 μM. The blood was allowed to dwell in a whole-blood state at room temperature, until assayed for platelet aggregation potential, all as described in Example 1. Agonists used included collagen and ADP, following manufacturer's instructions.

[2] = tested on: whole blood sample; assay: Visual inspection of stored whole blood sample for clotted, insoluble material; parameters: species or system human
Method: as §1
These peptides were used as the blood stabilization agent, and were spiked into blood immediately after collection into an empty, evacuated blood collection tube, achieving a final concentration of 150 μM. The blood was allowed to dwell in a whole-blood state at room temperature, until assayed for platelet aggregation potential, all as described in Example 1. Agonists used included collagen and ADP, following manufacturer's instructions. Table 4 lists a qualitative assessment of stability, namely how long after initially drawing the sample was platelet aggregation measureable above the effective instrument baseline. Additionally, the time to first visual observation of clotted, insoluble material in the whole blood sample, and an assessment of the severity or extent of the presence of this insoluble material was also recorded. In some cases, only visual characterization of the amount of insoluble material was reported, without having performed any platelet aggregation measurements.
(§2) The results are shown in Table 5 which lists additives alone or in combination that were spiked into freshly drawn whole blood samples. […] For some of the conditions tested, only a subset of these three parameters was recorded.

[3] = tested on: whole blood sample; assay: Visual inspection of stored whole blood sample for hemolysis; format: cell-based, human
Source text: Skilled practitioners will appreciate the hemolyzed samples are an obvious visual clue that damage to blood cells has occurred, either during the collection, transport, or storage of blood samples. Although hemolysis is not necessarily detrimental to any one clinical assay, it is a well known interference for some tests, and thus it is preferable to avoid causing hemolysis. Hemolysis can be measured by visual scale (e.g., mild or slightly pink, moderate or noticeably red, or severe or dark red). Hemolysis can also be measured by spectroscopic measurement of the red color of the hemoglobin itself, and can be reported by the concentration of hemoglobin released into the serum or plasma (e.g., such that less than about 20 mg/dL concentration of released hemoglobin, or to an extent that the hemoglobin concentration cannot be measured visually or by spectroscopy represents “minor or negligible” hemolysis, about 20 to about 100 mg/dL represents “mild” hemolysis, about 100 to about 300 represents “moderate” hemolysis, or greater than about 300 mg/dL represents “severe” hemolysis).
as §2

[4] = biological target: thrombin (Homo sapiens, UniProt P00734); conditions: reported in Koh; cited from earlier work
[5] = relatively high concentration, used alone

Compound | Time after blood draw where aggregation was still measurable above baseline ([1]; additive alone at 50 μM) [h] | Time after blood draw where aggregation was still measurable above baseline ([1]; additive alone at 75 μM) [h] | Time after blood draw where aggregation was still measurable above baseline ([1]; additive alone at 100 μM) [h] | time for stability of the sample for platelet aggregation measurements [1, 5] | onset of clotting [2, 5] | Visual inspection for hemolysis ([3]; Table 5, additive alone at 100 μM) | hemolysis [3, 5] | time after blood draw to solid clotting of the sample ([2]; peptide 150 μM, room temperature) | thrombin inhibition for therapeutic purposes [4]
C[C@@H]1CCN(C(=O)[C@H](CCCN=C(N)N)NS(=O)(=O)c2cccc3c2NC[C@H](C)C3)[C@@H](C(=O)O)C1 [Argatroban, (2R,4R)-1-[(2S)-5-(diaminomethylideneamino)-2-[[(3R)-3-methyl-1,2,3,4-tetrahydroquinolin-8-yl]-sulfonylamino]pentanoyl]-4-methyl-piperidine-2-carboxylic acid, reference compound] | 30 | 24 | 24 | less time for stability of the sample for platelet aggregation measurements | faster onset of clotting | Extensive | extensive amounts of hemolysis |  | 
MHKTAPPFDFEAIPEEYLDDES (Synthetic Peptide Variegin Fragment) [Ct22] |  |  |  |  |  |  |  | clots solidly within one hour | effective thrombin inhibitor
